Data set [1] relates to S.cerevisiae. As to the kind of experiment: Growth inhibition of yeast. In kind it is cell-based. The following applies: Saccharomyces cerevisiae; fluorescent light; read-out: concentration giving 50% growth inhibition. From the text: (§1) All studies were done in triplicate. […] “g” = MIC was not determined.
All studies were done in triplicate. […] MBC: minimum bactericidal concentrations (µg/mL).

Data set [2] has as its system E.faecium NR-32065. As to the kind of experiment: Time-kill kinetic assay. The following applies: twice the RB MIC; fluorescent light.
Experimental: (§2) Thus, the time-course experiments on these bacteria were conducted under the fluorescent light for 2 h (0-1,130 J/cm^2) at concentrations of about 2 to about 8-fold the MIC (RB). Reference molecules used were linezolid (10 µg/mL) and ciprofloxacin (10 µg/mL) for the Gram-positive bacteria and amikacin (10 µg/mL) and meropenem (10 µg/mL) for the Gram-negative bacterium.
(§3) Time-kill kinetics assay for antimicrobial agents was performed using CLSI guidelines with a minor modification. The multiple time points in time-kill kinetics assays for RB and the reference molecules were performed. The bacterial culture grown in the broth was diluted to a concentration between 1 × 10^8 and 5.0 × 10^9 CFU/mL.
(§4) A stock dilution of the antimicrobial test substance was prepared at approximately 2- to about 8-fold the MIC values. The test compounds were inoculated with equal volumes of the specified bacteria placed in a 96-well plate. The microtiter plates were incubated at 37° C. and duration (1-120 min) under the fluorescent light (conditions are summarized in the figure legend). An aliquot of the culture medium was taken from each well and a serial dilution was performed. The diluted culture was incubated at 37° C. and CFU/mL were counted.
Data set [3] deals with Gram-negative bacteria. As to the kind of experiment: MIC, broth dilution. In kind it is cell-based. As to conditions: dark condition; all Gram-negative bacteria of Table 1, entries 31-47.
Text: as §1

The test system of data set [4] is Gram-positive bacteria. As to the kind of experiment: MIC, broth dilution. Format: cell-based.
Text: as §1

Data set [5] deals with Burkholderia, Salmonella, and Proteus spp. As to the kind of experiment: MIC, broth dilution. The following applies: fluorescent or LED lights.
Experimental: (§5) We have reinvestigated the bactericidal activity of pharmaceutical-grade of RB against a battery of Gram-positive and -negative aerobic bacteria including Mycobacterium spp. and a Saccharomyces sp. under different light sources (fluorescence, LED, and sun light) and in a dark condition. Fluorescent light used was 17W (1,647 lumens, 63.8 cm^2) and LED was a 9.5 W (800 lumens, 28.3 cm^2), specifics about which are discussed hereinafter.
(§6) Minimum inhibitory concentrations (MICs) were determined by broth dilution microplate alamar blue assay or by OD measurement. All compounds were stored in DMSO or saline (1 mg/100 µL concentration). This concentration was used as the stock solution for all MIC studies. Each compound from stock solution was placed in the first well of a sterile 96 well plate and a serial dilution was conducted with the culturing broth (total volume of 10 µL). The bacterial suspension at log phase (190 µL) was added to each well (total volume of 200 µL), and was incubated for 24 h at 37° C.
Data set [6] concerns Streptococcus salivarius. As to the kind of experiment: MIC, broth dilution. As to conditions: entry 23.
Experimental: as §5, §6
Data set [7] relates to B.cepacia UCB717. As to the kind of experiment: Time-kill kinetic assay. The following applies: fluorescent light.
Experimental: as §2, §3, §4
Data set [8] concerns a S.aureus strain. The following applies: 19.5 µg/mL RB, 10 min visible light, light fluence dose 30 J/cm^2; cited from earlier work.
In data set [9] the test system is S.aureus 71080 (VRS8). As to the kind of experiment: Time-kill kinetic assay. The following applies: twice the RB MIC; fluorescent light.
Experimental: as §2, §3, §4
The conditions of data set [10]: at the therapeutic concentrations; cited from earlier work.

Some results are limits rather than exact numbers.

As to `O=C([O-])c1c(Cl)c(Cl)c(Cl)c(Cl)c1-c1c2cc(I)c(=O)c(I)c-2oc2c(I)c([O-])c(I)cc12.[Na+].[Na+]` [RB, 4,5,6,7-tetrachloro-2′,4′,5′,7′-tetraiodo-fluorescein], in [1], the IC50 worked out at 1.6 µg/mL. The time to kill in [2] and in [9] was no more than 2 min throughout. Also, the MIC was greater than 100 µg/mL in data set [3]; 25 to 100 µg/mL in [4] (dark condition, all Gram-positive bacteria of entries 1-23); 0.2 to 3.1 µg/mL in data set [4] (under illumination conditions (fluorescent, LED), wide range of Gram-positive bacteria, entries 1-23 in Table 1). Further, the “MIC (killing concentration)” value in [5] was in the range of 3.13 to 12.5 µg/mL. Also, the “susceptibility to RB” value in [6] is on record as “susceptible”. In addition, the “time required for a 5-log reduction” value in data set [7] (2-times the MIC) turned out to be 40 minutes. For the same molecule, the “log reduction of the bacteria” value in [7] (4-times the MIC, in 5 minutes, 2.9 × 10^8 CFU) was greater than 5 log. For the same molecule, the loss of viability result in [8] is listed as “about 80%”. Besides, in data set [10], the toxicological effects result is “does not have systemic toxicological effects, mutagenic potential, and female reproductive and development effects”.

The values above are taken from US20230233515A1, “PHOTODYNAMIC ANTI-GRAM-POSITIVE BACTERIAL ACTIVITY OF PHARMACEUTICAL-GRADE ROSE BENGAL” (priority 2021, published 2023).
